The values below come from publication PMC7457137, “An Integrated Pharmacokinetic Study of an Acanthopanax senticosus Extract Preparation by Combination of Virtual Screening, Systems Pharmacology, and Multi-Component Pharmacokinetics in Rats” (Frontiers in Pharmacology, 2020).

One data set has as its system zebrafish model. Further details: method as in Lin et al., 2017; Hu et al., 2018. The note with it: ref Lin et al., 2017, Hu et al., 2018; cited from earlier work.
The subject of data set [1] is human umbilical vein endothelial cells. Further details: method as in Lin et al., 2017; Hu et al., 2018. The following applies: ref Lin et al., 2017, Hu et al., 2018; cited from earlier work.
Data set [2] deals with insulin resistance. Further details: method as in Ma et al., 2015. The following applies: high-fat diet-fed rats; ref Ma et al., 2015; cited from earlier work.
A short description of data set [3]: Multi-component PK in rats after i.v. administration of ASEP. The data set is classed as in vivo, Sprague-Dawley rats. The note with it: for AUC(0-t) / AUC(0-inf) / clearance / MRT last / MRT inf / Vd / half-life: male, Sprague-Dawley, rat, iv; for AUC(0-t): read-out: AUC0-t; for AUC(0-inf): read-out: AUC0-∞; for clearance: read-out: Cl (converted); for MRT last: read-out: MRT0-t; for MRT inf: read-out: MRT0-∞; for Vd: read-out: Vd. The procedure:
The animal experiments were conducted in line with the Guide for the Care and Use of Laboratory Animals (published by the USA National Institutes of Health, NIH Publication no. 85-23, revised 1996), which were approved by the Animal Care and Use Committee of the College of Animal Science (College of Bee Science), Fujian Agriculture and Forestry University (Approval Number: […]2019004). […] All rats were acclimated to the facilities and environment for 7 days before the experiments. […] The gradient elution was carried out by the mobile phase water with 0.1% formic acid (A) and methanol (B). […] The column temperature and flow rate were at 35 °C and 0.5 ml/min, resepectively. 5 μl sample solution was injected for the HPLC-MS analysis. The electrospray ionization (ESI) source conditions were as follows: block heating temperature was kept at 400 °C; desolvation line temperature was set at 250 °C; dry gas (nitrogen) flow rate was kept at 15 L/min; and auxiliary gas (nitrogen) flow rate was 3 L/min. […] The plasma samples were separated by centrifugation, followed by storing at -20 °C before analysis. […] A DAS 3.0 software (Chinese Pharmacologic Society, Beijing, China) was used to calculate the noncompartmental PK parameters. All the results were presented as mean ± SD, and statistics analysis was done with a single-tailed Student's t test in the work.

Data set [4] deals with insulin resistance. More on the design: method as in Kim et al., 2017. The following applies: high-fat diet-fed mice; ref Kim et al., 2017; cited from earlier work.
The conditions of data set [5]: after ASEP; ref Fan et al., 2015; cited from earlier work.
A short description of data set [6]: Stability of the compounds in rat plasma (LC-MS validation). The data set is classed as in vitro ADME. From the text: According to the “Guidelines for non-clinical pharmacokinetics of drugs” issued by Centre for Drug Evaluation, National Medical Products Administration, China ([Guidelines for non-clinical pharmacokinetics of drugs, 2014]), the LC-MS method was validated by linearity, limits of detection (LOD), limits of quantification (LOQ), precision, accuracy, extraction recovery, matrix effect and stability of the 6 compounds in rat plasma. In brief, blank rat plasma was obtained from the other six rats. The standard mixture solution containing the 6 compounds (with the concentration of 1 mg/ml for each) was diluted with […] to prepare a series of working solution containing the 6 compounds (concentration level: 20, 50, 100, 250, 500 ng/ml and 1, 2.5, 5, 10, 25, 50, 100, 125 150, 200 μg/ml) and IS (2.5μg/ml). For calibration curve, 10 μl of the series of working solution containing the IS (2.5μg/ml) was added into 100 μl of blank plasma. Finally, 15 data points (2, 5, 10, 25, 50, 100, 250, 500 ng/ml and 1, 2.5, 5, 10, 12.5 15, 20 μg/ml) were used in the calibration curve linearity. Calibration curves were plotted by weighted linear regression of the peak area ratio of analyte to the IS against the related nominal concentration of the analyte. LOD and LOQ were defined as the detectable concentration at which the ratio of signal to noise was about 3 and 10, respectively ([Huang et al., 2019]). […] The extraction recovery and matrix effect were also assessed at the above-mentioned three concentration levels for the 6 ingredients in the spiked plasma samples ([Huang et al., 2019]). Stability was examined under the condition of setting un-treated plasma samples at ambient temperature for 6 h, and extracted plasma samples in auto-sampler for 10 h, as well as setting plasma samples for three freeze-thaw cycles and at −80°C for 15 days ([Guidelines for non-clinical pharmacokinetics of drugs, 2014]).

[7] abbreviates: plasma, 1.76 ml/kg, rat plasma, Low group: single i.v. 1.76 ml/kg of 5 times concentrated ASEP, mean ± SD, n=3.
[8] abbreviates: plasma, 3.52 ml/kg, rat plasma, High group: single i.v. 3.52 ml/kg of 5 times concentrated ASEP, mean ± SD, n=3.

The structures appear in SMILES notation. Read-outs that look alike come from different tables or passages of the source.

The Vd is the apparent volume that relates the amount in the body to the concentration in plasma or blood. As to `O=C(/C=C/c1ccc(O)c(O)c1)O[C@@H]1C[C@](O)(C(=O)O)C[C@@H](O)[C@H]1O` [3-CQA, 3-caffeoylquinic acid], the “effect on VEGF-induced angiogenesis” value in the data set on zebrafish model was “significant inhibitory effects”. The “effect on VEGF-induced angiogenesis” value in data set [1] is “significant inhibitory effects”. Moreover, the “effect on insulin resistance” value with insulin resistance [2] is “improve insulin resistance”. For the same molecule, in data set [3] (setting [7]), the AUC(0-t) came to 1830 ng·h/mL, the AUC(0-inf) is 1830 ng·h/mL, the clearance was 8.5 mL/min and the MRT last stood at 25.8 ± 1.2 min. In data set [3] (setting [7]), the MRT inf was found to be 25.8 ± 1.2 min and the Vd is 0.26 ± 0.01 L. Also, in data set [3] (plasma, 1.76 ml/kg, rat plasma, Low group: single i.v. 1.76 ml/kg of 5 times concentrated ASEP, mean ± SD, n=3, read-out: t 1/2 (converted)), the half-life is 21.6 ± 0.6 min. In addition, in data set [3] (setting [8]), the AUC(0-t) was 3410 ng·h/mL, the AUC(0-inf) worked out at 3420 ng·h/mL, the clearance was 9 mL/min and the MRT last worked out at 25.2 min. For the same molecule, in data set [3] (setting [8]), the MRT inf is 25.8 min and the Vd was determined as 0.64 L. Besides, the half-life in data set [3] (plasma, 3.52 ml/kg, rat plasma, High group: single i.v. 3.52 ml/kg of 5 times concentrated ASEP, mean ± SD, n=3, read-out: t 1/2 (converted)) was 48.6 min.

In the case of `COc1cc(/C=C/CO)cc(OC)c1O[C@@H]1O[C@H](CO)[C@@H](O)[C@H](O)[C@H]1O` [EB, eleutheroside B], the “effect on insulin resistance” value in the data set on insulin resistance [4] is listed as “improve insulin resistance”. Besides, the “PK profile in cerebral ischemia-reperfusion rats compared with the normal group” value in data set [5] was “accumulated”. Also, the “Stability, RE” value in data set [6] (extracted plasma samples, 10h in auto-sampler vials, high spiked level (HQC, 8000-16000 ng/mL)) is listed as 1.92%; in data set [6] (extracted plasma samples, 10h in auto-sampler vials, low spiked level (LQC, 5-30 ng/mL)), 12.12%; in data set [6] (extracted plasma samples, 10h in auto-sampler vials, middle spiked level (MQC, 400-1600 ng/mL)), -0.97%; in data set [6] (rat plasma, 6h at room temperature, high spiked level (HQC, 8000-16000 ng/mL)), -4.48%; in data set [6] (rat plasma, 6h at room temperature, low spiked level (LQC, 5-30 ng/mL)), -5.59%; in data set [6] (rat plasma, 6h at room temperature, middle spiked level (MQC, 400-1600 ng/mL)), -14.91%. For the same molecule, the “Stability, RE” value is recorded as -4.14% in data set [6] (rat plasma, freeze-thaw stability (three cycles), high spiked level (HQC, 8000-16000 ng/mL)); 4.10% in data set [6] (rat plasma, freeze-thaw stability (three cycles), low spiked level (LQC, 5-30 ng/mL)); -0.75% in data set [6] (rat plasma, freeze-thaw stability (three cycles), middle spiked level (MQC, 400-1600 ng/mL)); 6.11% in data set [6] (rat plasma, long-term stability (-80℃,15 days), high spiked level (HQC, 8000-16000 ng/mL)); -8.20% in data set [6] (rat plasma, long-term stability (-80℃,15 days), low spiked level (LQC, 5-30 ng/mL)); -4.54% in data set [6] (rat plasma, long-term stability (-80℃,15 days), middle spiked level (MQC, 400-1600 ng/mL)). Further, the “ingredient concentration in rat plasma” value in data set [3] (PK time points 2.5, 5, 10, 15 and 20 min after single i.v. 3.52 ml/kg of 5 times concentrated ASEP, preliminary examination) was > 0.5 ng/mL. Also, the AUC(0-t) in data set [3] (in vivo, 1.76 ml/kg) stood at 3040 ng·h/mL; in data set [3] (in vivo, 3.52 ml/kg), 4530 ng·h/mL. Besides, the AUC(0-inf) amounted to 3060 ng·h/mL in data set [3] (in vivo, 1.76 ml/kg) and 4540 ng·h/mL in data set [3] (in vivo, 3.52 ml/kg). Also, the clearance was 9.17 mL/min in data set [3] (in vivo, 1.76 ml/kg) and 12.3 mL/min in data set [3] (in vivo, 3.52 ml/kg). Also, the MRT last is 26.4 min in data set [3] (in vivo, 1.76 ml/kg) and 26.4 ± 0.6 min in data set [3] (in vivo, 3.52 ml/kg). Further, the MRT inf in data set [3] (in vivo, 1.76 ml/kg) was found to be 31.2 ± 0.6 min; in data set [3] (in vivo, 3.52 ml/kg) it was 30 ± 1.2 min. In addition, the Vd came out at 3.45 ± 0.1 L in data set [3] (in vivo, 1.76 ml/kg) and 3.38 ± 1.15 L in data set [3] (in vivo, 3.52 ml/kg). Moreover, the half-life in data set [3] (in vivo, 1.76 ml/kg, read-out: t 1/2 (converted)) was 261 ± 6 min; in data set [3] (in vivo, 3.52 ml/kg, read-out: t 1/2 (converted)), 190 ± 65.4 min; in data set [3] (in vivo, read-out: t 1/2 (elimination in rat blood)), ≥ 190 min.
